The record followed here is patent US20240252488A1 (KOREA RESEARCH INSTITUTE OF CHEMICAL TECHNOLOGY, priority 2020, published 2024).

The target of experiment [1] is T1, MLKL (Homo sapiens, UniProt Q8NB16).
T1 sequence (Q8NB16 1-471): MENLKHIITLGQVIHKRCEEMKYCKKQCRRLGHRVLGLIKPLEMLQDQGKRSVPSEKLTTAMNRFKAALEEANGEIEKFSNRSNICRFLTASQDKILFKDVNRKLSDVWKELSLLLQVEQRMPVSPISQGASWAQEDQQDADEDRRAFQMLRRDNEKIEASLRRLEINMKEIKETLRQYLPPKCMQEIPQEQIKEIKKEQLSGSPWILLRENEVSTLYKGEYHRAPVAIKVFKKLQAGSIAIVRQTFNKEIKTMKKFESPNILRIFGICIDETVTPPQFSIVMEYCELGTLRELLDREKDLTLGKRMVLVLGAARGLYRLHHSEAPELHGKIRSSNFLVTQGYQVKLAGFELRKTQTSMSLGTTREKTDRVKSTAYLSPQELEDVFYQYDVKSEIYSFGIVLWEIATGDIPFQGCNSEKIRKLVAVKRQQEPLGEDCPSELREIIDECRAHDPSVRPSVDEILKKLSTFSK
The experiment can be described thus: MLKL degradation assay in HepG2 cell line (western blot). Format: cell-based. On the set-up: endogenous in cells; host or cells: HepG2 or HaCaT. The following applies: cell line not given; for Degradation assay (Degradation %) 1 μM: compound 1 μM; for Degradation assay (Degradation %) 10 μM: compound 10 μM. The procedure, abridged:
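Cells seeded, next day medium swapped for compound-containing medium (final 1 or 10 μM) and incubated 20-24 h at 37 °C. Lysates in RIPA with protease/phosphatase inhibitors were protein-matched by BCA, run on SDS-PAGE and immunoblotted for MLKL.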
(In western blotting, separated proteins are transferred to a membrane and probed.)

Experiment [2] deals with T1, MLKL. In words: Measurement of binding affinity with MLKL receptor (competitive binding assay, Kd). On the set-up: made in house; host or cells: HEK 293 cell line (T7 phage in E. coli BL21-derived host is also described). The procedure, abridged: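 Kd from an immobilized-ligand competition format: the DNA-tagged kinase from HEK 293 expression is eluted and quantified by qPCR. Compounds added from 111× DMSO stocks, final DMSO 0.9%.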

For another experiment, the system named is FADD−/− Jurkat cells. In words: Necroptosis inhibition assay, TNF-α-induced necroptosis (CellTiter-Glo 2.0). Conditions: TNF-α 15 ng/mL; for Necroptosis inhibition assay (Rescue %) 1 μM: compound 1 μM; for Necroptosis inhibition assay (Rescue %) 10 μM: compound 10 μM. It counts as cell-based, human. The method in brief:
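Luminescent ATP measurement gave viability, from which cytotoxicity and necroptosis inhibition rate were derived. Before that, cells (5.0×10^5 cells/mL) saw compound at 0.1, 1 or 10 μM final for 30 minutes at room temperature, then TNF-α (15 ng/mL final) for 20 to 24 hours at 37° C.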

For the compound `Nc1ncc(-c2cnn(C3CCN(CCCN4CCN(CC5CCN(c6ccc7c(c6)C(=O)N(C6CCC(=O)NC6=O)C7=O)CC5)CC4)CC3)c2)nc1C(=O)O[C@@H](C(=O)Nc1ccc(F)cc1)c1ccccc1` (stereo partly drawn) [TDH-474, (R)-2-((4-fluorophenyl)amino)-2-oxo-1-phenylethyl 3-amino-6-(1-(1-(3-(4-((1-(2-(2,6-dioxopiperidin-3-yl)-1,3-dioxoisoindolin-5-yl)piperidin-4-yl)methyl)piperazin-1-yl)propyl)piperidin-4-yl)-1H-pyrazol-4-yl)pyrazine-2-carboxylate], at MLKL [1], the “Degradation assay (Degradation %) 1 μM” value amounted to 54.33% and the “Degradation assay (Degradation %) 10 μM” value amounted to 68.31%. For the same compound, at MLKL [2], the Kd – broadly, the concentration at which binding is half-saturated – turned out to be 0.95 nM. Moreover, in the experiment with FADD−/− Jurkat cells (FADD−/− Jurkat cells), the “Necroptosis inhibition assay (Rescue %) 1 μM” value was found to be 25.61% and the “Necroptosis inhibition assay (Rescue %) 10 μM” value is 5.98%.
On the same counts, the results for `Nc1ncc(-c2cnn(C3CCN(CC4CCN(C(=O)Cc5cccc(NC6=CC(=O)N(C7CCC(=O)NC7=O)C6=O)c5)CC4)CC3)c2)nc1C(=O)O[C@@H](C(=O)Nc1ccc(F)cc1)c1ccccc1` (stereo partly drawn) [TDH-516, (R)-2-((4-fluorophenyl)amino)-2-oxo-1-phenylethyl 3-amino-6-(1-(1-((1-(2-(3-((1-(2,6-dioxopiperidin-3-yl)-2,5-dioxo-2,5-dihydro-1H-pyrrol-3-yl)amino)phenyl)acetyl)piperidin-4-yl)methyl)piperidin-4-yl)-1H-pyrazol-4-yl)pyrazine-2-carboxylate] are 81.44%, 77.67%, 9.7 nM, 17.46% and 5.65%.
As for `Nc1ncc(-c2cnn(C3CCN(C(=O)CCC4CCN(C(=O)CNc5cccc6nnn(C7CCC(=O)NC7=O)c(=O)c56)CC4)CC3)c2)nc1C(=O)O[C@@H](C(=O)Nc1ccc(F)cc1)c1ccccc1` (stereo partly drawn) [TDH-433, (R)-2-((4-fluorophenyl)amino)-2-oxo-1-phenylethyl 3-amino-6-(1-(1-(3-(1-((3-(2,6-dioxopiperidin-3-yl)-4-oxo-3,4-dihydrobenzo[d][1,2,3]triazin-5-yl)glycyl)piperidin-4-yl)propanoyl)piperidin-4-yl)-1H-pyrazol-4-yl)pyrazine-2-carboxylate], on MLKL [1], the “Degradation assay (Degradation %) 1 μM” value amounted to 74.16% and the “Degradation assay (Degradation %) 10 μM” value is listed as 46.20%. Also, binding at MLKL [2] was put at a Kd of 2.1 nM. For the same compound, in the experiment on FADD−/− Jurkat cells (FADD−/− Jurkat cells), the “Necroptosis inhibition assay (Rescue %) 1 μM” value was determined as 16.00% and the “Necroptosis inhibition assay (Rescue %) 10 μM” value was found to be 11.01%.
On to `Nc1ncc(-c2cnn(C3CCN(CC4CCN(C(=O)COc5ccc6c(c5)C(=O)N(C5CCC(=O)NC5=O)C6=O)CC4)CC3)c2)nc1C(=O)N[C@@H](C(=O)Nc1ccc(F)cc1)c1ccccc1` (stereo partly drawn) [TDH-187, 3-amino-6-(1-(1-((1-(2-((2-(2,6-dioxopiperidin-3-yl)-1,3-dioxoisoindolin-5-yl)oxy)acetyl)piperidin-4-yl)methyl)piperidin-4-yl)-1H-pyrazol-4-yl)-N-((R)-2-((4-fluorophenyl)amino)-2-oxo-1-phenylethyl)pyrazine-2-carboxamide], for which the “Degradation assay (Degradation %) 1 μM” value on MLKL [1] was determined as 27.67%. Also, the affinity at MLKL [2], expressed as Kd, was 150 nM. Also, in the experiment with FADD−/− Jurkat cells, the “Necroptosis inhibition assay (Rescue %) 1 μM” value is given as 28.68% and the “Necroptosis inhibition assay (Rescue %) 10 μM” value is recorded as 29.31%.
As to `Nc1ncc(-c2cnn(C3CCN(C(=O)CC4CCN(C(=O)CNc5cccc6nnn(C7CCC(=O)NC7=O)c(=O)c56)CC4)CC3)c2)nc1C(=O)O[C@@H](C(=O)Nc1ccc(F)cc1)c1ccccc1` (stereo partly drawn) [TDH-411, (R)-2-((4-fluorophenyl)amino)-2-oxo-1-phenylethyl 3-amino-6-(1-(1-(2-(1-((3-(2,6-dioxopiperidin-3-yl)-4-oxo-3,4-dihydrobenzo[d][1,2,3]triazin-5-yl)glycyl)piperidin-4-yl)acetyl)piperidin-4-yl)-1H-pyrazol-4-yl)pyrazine-2-carboxylate], at MLKL [1], the “Degradation assay (Degradation %) 1 μM” value is listed as 53.86% and the “Degradation assay (Degradation %) 10 μM” value was found to be 44.78%. For the same compound, the Kd on MLKL [2] was 5.7 nM. Also, in the experiment on FADD−/− Jurkat cells (FADD−/− Jurkat cells), the “Necroptosis inhibition assay (Rescue %) 1 μM” value is 9.91% and the “Necroptosis inhibition assay (Rescue %) 10 μM” value is recorded as 10.81%.
The like results for `Nc1ncc(-c2cnn(C3CCN(CCOC4CCN(C(=O)c5ccc6c(N7CCC(=O)NC7=O)coc6c5)CC4)CC3)c2)nc1C(=O)O[C@@H](C(=O)Nc1ccc(F)cc1)c1ccccc1` [TDH-554, (R)-2-((4-fluorophenyl)amino)-2-oxo-1-phenylethyl 3-amino-6-(1-(1-(2-((1-(3-(2,4-dioxotetrahydropyrimidin-1(2H)-yl)benzofuran-6-carbonyl)piperidin-4-yl)oxy)ethyl)piperidin-4-yl)-1H-pyrazol-4-yl)pyrazine-2-carboxylate] were, in that order, 83.95%, 70.50%, 0.43 nM, 39.53% and 14.16%.
As for `Cc1ncsc1-c1ccc(CNC(=O)[C@H]2C[C@H](O)CN2C(=O)[C@@H](NC(=O)CN2CCC(CCN3CCC(n4cc(-c5cnc(N)c(C(=O)OC(C(=O)Nc6ccc(F)cc6)c6ccccc6)n5)cn4)CC3)CC2)C(C)(C)C)cc1` (stereo partly drawn) [TDH-312, 2-((4-fluorophenyl)amino)-2-oxo-1-phenylethyl 3-amino-6-(1-(1-(2-(1-(2-(((S)-1-((2R,4S)-4-hydroxy-2-((4-(4-methylthiazol-5-yl)benzyl)carbamoyl)pyrrolidin-1-yl)-3,3-dimethyl-1-oxobutan-2-yl)amino)-2-oxoethyl)piperidin-4-yl)ethyl)piperidin-4-yl)-1H-pyrazol-4-yl)pyrazine-2-carboxylate], at MLKL [1], the “Degradation assay (Degradation %) 1 μM” value is recorded as 59.87% and the “Degradation assay (Degradation %) 10 μM” value came out at 40.64%. Besides, at MLKL [2], the Kd amounted to 6.9 nM. Moreover, the “Necroptosis inhibition assay (Rescue %) 1 μM” value in the experiment on FADD−/− Jurkat cells was 75.61%.
`Nc1ncc(-c2cnn(C3CCN(C(=O)CC4CCN(C(=O)CCc5ccc6c(c5)C(=O)N(C5CCC(=O)NC5=O)C6=O)CC4)CC3)c2)nc1C(=O)O[C@@H](C(=O)Nc1ccc(F)cc1)c1ccccc1` (stereo partly drawn) [TDH-403, (R)-2-((4-fluorophenyl)amino)-2-oxo-1-phenylethyl 3-amino-6-(1-(1-(2-(1-(3-(2-(2,6-dioxopiperidin-3-yl)-1,3-dioxoisoindolin-5-yl)propanoyl)piperidin-4-yl)acetyl)piperidin-4-yl)-1H-pyrazol-4-yl)pyrazine-2-carboxylate]: on MLKL [1], the “Degradation assay (Degradation %) 1 μM” value is 79.40% and the “Degradation assay (Degradation %) 10 μM” value is 83.30%. The compound further gave a Kd at MLKL [2] of 2.8 nM. Further, in the experiment on FADD−/− Jurkat cells (FADD−/− Jurkat cells), the “Necroptosis inhibition assay (Rescue %) 1 μM” value is 43.50% and the “Necroptosis inhibition assay (Rescue %) 10 μM” value was 29.42%.
As to `Nc1ncc(-c2cnn(C3CCN(C(=O)COC4CCN(C(=O)COc5ccc6c(c5)C(=O)N(C5CCC(=O)NC5=O)C6=O)CC4)CC3)c2)nc1C(=O)O[C@@H](C(=O)Nc1ccc(F)cc1)c1ccccc1` (stereo partly drawn) [TDH-394, (R)-2-((4-fluorophenyl)amino)-2-oxo-1-phenylethyl 3-amino-6-(1-(1-(2-((1-(2-((2-(2,6-dioxopiperidin-3-yl)-1,3-dioxoisoindolin-5-yl)oxy)acetyl)piperidin-4-yl)oxy)acetyl)piperidin-4-yl)-1H-pyrazol-4-yl)pyrazine-2-carboxylate], at MLKL [1], the “Degradation assay (Degradation %) 1 μM” value turned out to be 60.83% and the “Degradation assay (Degradation %) 10 μM” value was determined as 94.76%. The Kd at MLKL [2] came to 2.8 nM. In addition, in the experiment with FADD−/− Jurkat cells, the “Necroptosis inhibition assay (Rescue %) 1 μM” value was 47.22% and the “Necroptosis inhibition assay (Rescue %) 10 μM” value is on record as 53.54%.
